pKd: −log10 of the molar value. “Also recorded” adds a separate entry of the source.
Experiments:
[1] = target: T1, human GATA3 (Homo sapiens, UniProt P23771); assay: GATA3-dependent reporter assay in IHH cells; assay type: cell-based; conditions: 48 hours
T1 construct: expressed in transfected cells; host or cells: IHH
Protocol: The IHH cells were transiently transfected with empty vector (for the NT) or human GATA3-expressing plasmid as well as pRL-TK (internal control) and GATA-Luc reporter plasmids. Cells were exposed to DMSO vehicle or compounds for 48 hours. Experiments were done in triplicate.

[2] = target: T2, recombinant protein of human GATA2 (Homo sapiens, UniProt P23769); assay: SPR analysis on amine-coupled GATA2; assay type: binding; conditions: 50 μM each
T2 sequence (P23769 1-480): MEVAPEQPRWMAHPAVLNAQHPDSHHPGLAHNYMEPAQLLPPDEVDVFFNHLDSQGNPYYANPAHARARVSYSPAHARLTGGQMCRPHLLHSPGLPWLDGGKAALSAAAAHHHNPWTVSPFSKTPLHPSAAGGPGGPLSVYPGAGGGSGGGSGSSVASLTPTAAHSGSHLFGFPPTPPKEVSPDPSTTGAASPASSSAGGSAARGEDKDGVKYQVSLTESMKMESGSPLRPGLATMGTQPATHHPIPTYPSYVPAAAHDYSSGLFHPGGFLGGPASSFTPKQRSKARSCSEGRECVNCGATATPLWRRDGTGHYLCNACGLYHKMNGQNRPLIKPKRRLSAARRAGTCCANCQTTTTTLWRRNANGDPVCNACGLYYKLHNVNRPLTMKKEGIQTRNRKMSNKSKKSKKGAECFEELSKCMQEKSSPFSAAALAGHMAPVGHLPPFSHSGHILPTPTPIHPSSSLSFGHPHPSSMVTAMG
Source text: In embodiments of the invention, the androgen-bound AR is regressing GATA2 expression and inhibition of AR via castration or use of antiandrogen releases such expression. […] Overexpression of GATA2 confers resistance to antiandrogen bicalutamide (Bic) (FIG. 2.9). Compound 673 is effective against the LNCaP stably transfected with GATA2-expressing plasmid (referred to as LNCaP-GATA2 cells) (FIG. 2.8).

[3] = target: T3, human GATA2 (Homo sapiens, UniProt P23769); assay: GATA2-dependent reporter assay in IHH cells; assay type: cell-based; conditions: GATA-Luc reporter, 48 h
T3 construct: expressed in transfected cells; host or cells: IHH
T3 sequence (P23769 1-480): T2 sequence (P23769 1-480)
Protocol: K7174 is a known GATA2 inhibitor. The IHH cells were transiently transfected with empty vector (for the NT) or human GATA2-expressing plasmid as well as pRL-TK (internal control) and GATA-Luc reporter plasmids. Cells were exposed to DMSO vehicle or compounds for 48 h. Experiments were in triplicate.

[4] = target: T4, mouse STING (mSTING) (Mus musculus, UniProt Q3TBT3); assay: mSTING ISRE-luc reporter assay in 293T cells; assay type: cell-based; conditions: 24 hours
T4 construct: expressed in transfected cells; host or cells: 293T
T4 sequence (Q3TBT3 1-378): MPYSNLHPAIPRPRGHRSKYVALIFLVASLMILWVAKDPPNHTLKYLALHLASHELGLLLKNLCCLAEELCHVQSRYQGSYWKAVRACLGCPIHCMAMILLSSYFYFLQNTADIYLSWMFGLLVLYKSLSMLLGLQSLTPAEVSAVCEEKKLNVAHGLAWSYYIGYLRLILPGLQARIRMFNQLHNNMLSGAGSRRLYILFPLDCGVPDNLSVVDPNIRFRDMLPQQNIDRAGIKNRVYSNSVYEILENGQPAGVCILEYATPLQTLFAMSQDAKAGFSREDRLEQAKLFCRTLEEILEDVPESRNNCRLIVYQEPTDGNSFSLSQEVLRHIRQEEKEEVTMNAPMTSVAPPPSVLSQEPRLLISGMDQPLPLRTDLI
Protocol: ISRE-luc (reporter), pRL-TK (internal control) and mSTING-expressing plasmids were transiently transfected into 293T cells. Cells were exposed to DMSO vehicle control or compounds for 24 hours. Experiments were done in triplicate.

[5] = target: human STING (Homo sapiens, UniProt Q86WV6); assay: SPR analysis on amine-coupled human STING; assay type: binding; conditions: 0-50 μM, 2-fold dilution series
human STING, sequence (Q86WV6 whole entry H232R): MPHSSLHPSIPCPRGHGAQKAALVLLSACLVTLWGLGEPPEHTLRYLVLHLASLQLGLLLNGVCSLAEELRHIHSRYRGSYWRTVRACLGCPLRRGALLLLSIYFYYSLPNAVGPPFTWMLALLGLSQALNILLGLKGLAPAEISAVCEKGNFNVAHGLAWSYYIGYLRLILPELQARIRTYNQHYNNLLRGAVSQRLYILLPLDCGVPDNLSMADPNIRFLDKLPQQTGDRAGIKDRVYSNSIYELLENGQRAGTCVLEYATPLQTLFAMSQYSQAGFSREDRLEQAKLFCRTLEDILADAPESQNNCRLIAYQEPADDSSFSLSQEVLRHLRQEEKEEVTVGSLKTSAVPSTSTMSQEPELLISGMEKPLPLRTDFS

[6] = target: T5, human STING (hSTING) (Homo sapiens, UniProt Q86WV6); assay: hSTING ISRE-luc reporter assay in 293T cells; assay type: cell-based; conditions: 24 hours
T5 construct: expressed in transfected cells; host or cells: 293T
T5 sequence (Q86WV6 whole entry H232R): as above
Protocol: ISRE-luc (reporter), pRL-TK (internal control) and hSTING-expressing plasmids were transiently transfected into 293T cells. Cells were exposed to DMSO vehicle control or compounds for 24 hours. Experiments were done in triplicate.

[7] = system: phosphorylation of ERK in HCT-116 cells; assay: Western blot, phosphorylation of ERK in HCT-116 cells; assay type: cell-based; conditions: 10 μM, 24 hours
Protocol: HCT-116 cells were exposed to DMSO vehicle or compounds at designated doses for 24 hours.

[8] = system: Panc10.05 pancreatic cancer cells; assay: MTT analysis, Panc10.05; assay type: cell-based; conditions: endogenous KRAS 12D, 72 hours
Protocol: (§1) Panc 10.05, H23 and HCT-116 cells express endogenous KRAS 12D, 12C and 13D mutants, respectively. Cells were exposed to DMSO vehicle or compounds at designated doses for 72 hours. Experiments were done in triplicate.

[9] = system: phosphorylation of ERK in Panc 10.05 cells; assay: Western blot, phosphorylation of ERK in Panc 10.05 cells; assay type: cell-based; conditions: 24 hours
Protocol: (§2) C-PARP, cleaved PARP. Panc10.05 cells were exposed to DMSO vehicle or compounds at designated doses for 24 hours.
Panc10.05 cells were exposed to DMSO vehicle or compounds at designated doses for 24 hours.

[10] = system: HCT-116 colorectal cancer cells; assay: MTT analysis, HCT-116; assay type: cell-based; conditions: endogenous KRAS 13D, 72 hours
Protocol: as §1

[11] = system: H23 KRAS-mutant NSCLC cells; assay: MTT assay, H23; assay type: cell-based; conditions: endogenous KRAS 12C, 72 hours
Protocol: FIG. 2.7 Compound 673 is cytotoxic in KRAS-mutant NSCLC cells (A549 and H23), but is not toxic the KRAS wild-type NSCLC cells (H322). Cells were exposed to vehicle or compounds (μM) for 72 hours. Viable cells were evaluated by MTT assays.
as §1

[12] = target: T6, ETV1 (Homo sapiens, UniProt P50549); assay: ETV1-dependent reporter assay in HEK293 cells; assay type: cell-based; conditions: 48 hours
T6 construct: expressed in transfected cells; host or cells: HEK293
T6 sequence (P50549 1-477): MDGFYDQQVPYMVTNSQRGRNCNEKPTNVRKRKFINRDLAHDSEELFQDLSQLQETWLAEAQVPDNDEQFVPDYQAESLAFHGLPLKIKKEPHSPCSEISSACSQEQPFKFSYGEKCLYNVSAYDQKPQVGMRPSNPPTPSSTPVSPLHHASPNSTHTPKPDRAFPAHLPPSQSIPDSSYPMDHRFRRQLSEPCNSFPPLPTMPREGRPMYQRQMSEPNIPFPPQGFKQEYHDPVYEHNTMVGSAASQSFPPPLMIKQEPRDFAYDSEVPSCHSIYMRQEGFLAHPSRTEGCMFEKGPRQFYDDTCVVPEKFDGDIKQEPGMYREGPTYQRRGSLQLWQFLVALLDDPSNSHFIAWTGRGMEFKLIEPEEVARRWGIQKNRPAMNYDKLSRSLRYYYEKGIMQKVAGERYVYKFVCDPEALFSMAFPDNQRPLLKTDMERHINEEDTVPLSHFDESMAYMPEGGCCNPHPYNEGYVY
Protocol: HEK293 cells were transiently transfected with empty vector (for the NT) or ERG-expressing plasmid as well as pRL-TK (internal control) and PUx3-Luc reporter. Cells were then exposed to DMSO vehicle or compounds at designated doses for 48 hours. Experiments were done in triplicate.
Experiments were done as described above in FIG. 1.1a) except that ERG plasmid was replaced by ETV1 plasmid.

[13] = system: LNCaP cells; assay: MTT cytotoxicity assay in ETV1-positive LNCaP cells; assay type: cell-based; conditions: 72 hours
Protocol: FIG. 1.8 Cytotoxicity of compounds 827 and 832 in the ETV1-postive LNCaP cells as evaluated by MTT assay (72 hours).

[14] = system: Panc 10.05 cells; assay: Western blot, apoptosis (cleaved PARP) in Panc 10.05 cells; assay type: cell-based; conditions: 24 hours
Protocol: as §2

[15] = target: T7, recombinant human KRAS 12D mutant protein (Homo sapiens, UniProt P01116, G12D); assay: SPR analysis on amine-coupled KRAS (G12D mutant); assay type: binding
T7 construct: purchased ORIGENE TP700052
T7 sequence (P01116 1-188 isoform P01116-2 G12D): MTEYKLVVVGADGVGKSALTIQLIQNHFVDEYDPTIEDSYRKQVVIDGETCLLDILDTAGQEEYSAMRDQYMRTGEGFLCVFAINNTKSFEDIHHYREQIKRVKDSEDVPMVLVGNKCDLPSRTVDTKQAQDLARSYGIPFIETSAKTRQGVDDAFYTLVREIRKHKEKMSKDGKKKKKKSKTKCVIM
Protocol: FIG. 4.1 SPR analysis. Left panels, SPR sensorgrams for compounds 784 and 895 binding to 3500 RU amine-coupled KRAS (G12D mutant) at 25 μL/min in PBS-T containing 1 μM GDP. Right panels, corresponding non-linear regression analyses of steady-state binding responses versus concentration to determine apparent equilibrium dissociation constants (KD).
Since activation of KRAS leads to activation of NF-kB,^69 we performed in vitro screening of our compounds by KRAS mutant-dependent NF-kB-luc reporter assay in HEK293 cells. […] Also, compounds of the invention are cytotoxic to PANC 10.05 pancreatic cancer cells, H23 NSCLC cells and HCT-116 colorectal cancer cells (FIG. 4.5).

T1 sequence (P23771 whole entry): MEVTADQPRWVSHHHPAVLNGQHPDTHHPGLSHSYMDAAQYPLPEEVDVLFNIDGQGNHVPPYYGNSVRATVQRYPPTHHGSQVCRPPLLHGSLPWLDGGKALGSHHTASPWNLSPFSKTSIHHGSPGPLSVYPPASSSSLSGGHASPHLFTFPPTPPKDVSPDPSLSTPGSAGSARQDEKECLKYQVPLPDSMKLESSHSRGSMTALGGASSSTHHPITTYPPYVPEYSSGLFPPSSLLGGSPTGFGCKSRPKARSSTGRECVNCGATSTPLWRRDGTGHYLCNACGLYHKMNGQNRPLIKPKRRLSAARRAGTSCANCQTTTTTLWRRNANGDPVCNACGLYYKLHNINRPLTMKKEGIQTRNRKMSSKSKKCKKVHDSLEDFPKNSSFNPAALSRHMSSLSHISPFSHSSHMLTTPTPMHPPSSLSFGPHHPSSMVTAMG

| Structure (SMILES) | suppression of phosphorylation of ERK (Western blot) [7] | inhibition of proliferation of Panc10.05 cells (MTT) [8] | inhibition of proliferation of HCT-116 cells (MTT) [10] | inhibition of proliferation of H23 cells (MTT) [11] | ETV1 inhibition in ETV1-dependent reporter assay [12] | cytotoxicity in ETV1-positive LNCaP cells (MTT) [13] | also measured |
| --- | --- | --- | --- | --- | --- | --- | --- |
| c1coc(-c2nc(CCCc3c[nH]c4ccccc34)[nH]c2-c2ccco2)c1 [Compound 817] | – | – | – | – | – | – | activity against GATA3 in GATA3-dependent reporter assay ([1]; 10 μM): inactive against GATA3; activity against GATA3 in GATA3-dependent reporter assay ([1]; compounds at 5 μM): inactive against GATA3; binding to amine-coupled GATA2 (SPR) [2]: Direct binding; also recorded: Specific binding; GATA2 inhibition in GATA2-dependent reporter assay [3]: GATA2 inhibitors; activation of mSTING in ISRE-luc reporter assay [4]: activate mouse STING (mSTING); binding to amine-coupled human STING (SPR) [5]: Specific, dose-dependent binding; also recorded: Direct binding; activation of hSTING in ISRE-luc reporter assay [6]: activate hSTING |
| N#CCN(CCc1c[nH]c2ccccc12)Cc1nc(-c2cccc(F)c2)c(-c2cccc(F)c2)[nH]1 [Compound 1186] | potently suppressed phosphorylation of ERK | dose-dependently inhibit proliferation | dose-dependently inhibit proliferation | dose-dependently inhibit proliferation | – | – | suppression of phosphorylation of ERK (Western blot) ([9]; 10 μM): potently suppressed phosphorylation of ERK |
| c1coc(-c2nc(Cc3c[nH]c4ccccc34)oc2-c2ccco2)c1 [Compound 827] | – | – | – | – | ETV1 inhibitors | cytotoxic | – |
| COc1ccc(CC/C(=C/C(=O)N2CCN(c3ccccc3OC)CC2)c2ccccc2)cc1F [Compound 1261] | – | dose-dependently inhibit proliferation | dose-dependently inhibit proliferation | dose-dependently inhibit proliferation | – | – | – |
| COc1ccc(CC/C(=C/C(=O)N2CCC(O)(c3ccccc3)CC2)c2ccccc2)cc1F [Compound 895] | potently suppressed phosphorylation of ERK | – | – | – | – | – | suppression of phosphorylation of ERK (Western blot) ([9]; designated doses): dose-dependently suppressed phosphorylation of ERK; induction of apoptosis (cleaved PARP, Western blot) [14]: induced apoptosis; direct binding with KRAS G12D mutant (SPR) [15]: Direct binding; pKd ([15]; PBS-T containing 1 μM GDP, steady-state): 4.35 |
| c1coc(-c2nc(Cc3c[nH]c4ccccc34)[nH]c2-c2ccco2)c1 [Compound 832] | – | – | – | – | ETV1 inhibitors | cytotoxic | – |

From US10844051B2, “Substituted oxazoles for the treatment of cancer” (THE ROYAL INSTITUTION FOR THE ADCANCEMENT OF …, priority 2015, dated 2020)
